Laboratory results published in ChEMBL document CHEMBL1153880, “Synthesis and adrenolytic activity of 1-(1H-indol-4-yloxy)-3-{[2-(2-methoxyphenoxy)ethyl]amino}propan-2-ol and its enantiomers. Part 1” (Eur J Med Chem, 2009).

Key:
Rattus norvegicus [1] = assay: Effect on heart rate in anaesthetized Wistar rat assessed as number of beats per minute at 1 mg/kg, iv after 1 min by electrocardiography; assay type: functional
Rattus norvegicus [2] = assay: Effect on heart rate in anaesthetized Wistar rat assessed as number of beats per minute at 1 mg/kg, iv after 5 mins by electrocardiography; assay type: functional
Rattus norvegicus [3] = assay: Effect on electrocardiogram in anaesthetized Wistar rat assessed as change in P-Q interval at 1 mg/kg, iv after 1 min by electrocardiography; assay type: functional
Rattus norvegicus [4] = assay: Antiarrhythmic activity against adrenaline-induced arrhythmia in iv dosed anaesthetized Wistar rat assessed as inhibition of premature ventricular beats pretreated 60 mins prior to adrenaline challenge; assay type: functional; details: Heart
[5] = Acute toxicity in iv dosed anaesthetized Wistar rat; assay type: organism-based; details: in vivo
[6] = Therapeutic index, ratio of LD50 for Wistar rat to antiarrhythmic ED50 for Wistar rat; assay type: organism-based, Heart; details: in vivo, read-out: TI

Compound	Activity (Rattus norvegicus [1])	Activity (Rattus norvegicus [2])	Activity (Rattus norvegicus [3])	ED50 (Rattus norvegicus [4])	LD50 [5]	selectivity ratio [6]
COc1ccccc1OCCNCC(O)COc1cccc2[nH]c3ccccc3c12 (stereo not drawn) [CARVEDILOL]	345.2 min⁻¹	340.3 min⁻¹	50 ms	0.25 mg/kg	25 mg/kg	–
CC(C)NCC(O)COc1cccc2[nH]ccc12 (stereo not drawn) [PINDOLOL]	–	–	–	1.05 mg/kg	39 mg/kg	37
